In publication PMC7763995 (Molecules, 2020):

Assays:
Equine serum BChE [1] = biological target: T1, Equine serum BChE (Equus caballus, UniProt P81908); assay: biochemical
T1 construct: equine serum BChE; purchased Sigma-Aldrich; host or cells: equine serum
Description: (§1) Measurements were performed with a FLUOStar Optima microplate reader (BMG Labtech, Ortenberg, Germany). Compounds were dissolved in DMSO, the incubation mixture contained 2% solvent.

Human erythrocyte AChE = biological target: T2, Human erythrocyte AChE (Homo sapiens, UniProt P22303); assay: biochemical; conditions: mean ± SEM, n = 3; n.a. = not active; read-out: Human Erythrocyte AChE, IC50
T2 construct: AChE from human erythrocytes was used; purchased Sigma-Aldrich; host or cells: human erythrocytes
Description: as §1

Porcine liver CES = assay: In vitro CES inhibition, 4-NPA substrate; type: biochemical; conditions: compound concentration 20 µM; n.a. = not active
Description: as §1

Equine serum BChE [2] = biological target: T1, Equine serum BChE; assay: Kinetic study of BChE inhibition, steady-state inhibition constants; type: biochemical
Description: Mechanisms of human erythrocyte AChE and equine serum BChE inhibition were assessed via a thorough analysis of enzyme kinetics. Residual activity was measured following 5 min incubation at 25°C (for temperature equilibration) with three increasing concentrations of inhibitor and six decreasing substrate concentrations. Substrate was added immediately after the 5 min incubation with inhibitor and the rates of absorption were monitored at 412 nm using a FLUOStar OPTIMA microplate reader.

[3] = FRAP (ferric reducing antioxidant power) assay; conditions: 20 µM, 1 h incubation; ratio of concentrations of Trolox and test compound with same effect
Description: The FRAP (ferric reducing antioxidant power) assay proposed by Benzie and Strain [80, 81] was modified to be performed in 96-well microplates. The FRAP reagent contained 2.5 mL of 10 mM TPTZ (2,4,6-tris(2-pyridyl)-s-triazine (Sigma-Aldrich) solution in 40 mM HCl, 2.5 mL of 20 mM FeCl3 (Sigma-Aldrich) in distilled water and 25 mL of 0.3 M acetate buffer (pH 3.6). In 96-well microplates, 10 µL aliquots of the substance under investigation (compounds 7, 8 or reference substance) dissolved in DMSO (0.5 mM) were placed in quadruplicate. The FRAP reagent (240 µL) freshly prepared and warmed to 37°C was added to three of these samples, while the same volume of acetate buffer was added to the fourth one (blank). Consequently, the concentration of the substance in a plate was 20 µM. The absorbance at 600 nm was monitored spectrophotometrically with a FLUOStar OPTIMA microplate reader at 37°C for an hour with an interval of 5–10 min. Data in Table 2 are given for 1 h of incubation of compounds with FRAP reagent. The absorbances of the blanks and those of the mixture of 240 µL FRAP reagent plus 10 µL DMSO were subtracted from the absorbances of the samples at each time interval to calculate the absorbance change. Standard antioxidants Trolox and BHT dissolved in DMSO and analyzed as described above were used as reference compounds. A calibration curve with linear formula y = 0.03x (R^2 = 0.998, p < 0.0001) was obtained for Trolox solution in DMSO in the range 2.5–100 µM and the results were expressed as FRAP units (the values calculated as the ratio of the concentrations of Trolox and the test compound resulting in the same effect.)

mouse brain homogenate [4] = assay: Luminol chemiluminescence assay in mouse brain homogenate (TBHP-initiated); conditions: compound concentration 20 µM; mice brain homogenate
Description: (§2) The work was carried out in accordance with the EU Directive 2010/63/EU. Hybrid BDF1 mice (about 6 months old) were sacrificed by decapitation. Each brain was rapidly excised, frozen in liquid nitrogen, and stored at −80°C until use. The brains were thawed and homogenized using a Wisd WiseTis HG-15D homogenizer for 2 min in a buffer (0.01 M PBS, pH 7.4 or 0.1 M Tris-HCl, pH 7.4). Protein concentrations were determined by the Lowry method.
Luminol-dependent chemiluminescence produced by mouse brain homogenates was measured using a 1250 Luminometer (LKB Wallac, Turku, Finland) according to the assay by Di Meo et al. with minor modifications. The reaction mixture consisted of mouse brain homogenate (protein concentration 0.1 mg/mL) in 0.1 M Tris-HCl (Sigma-Aldrich), pH 7.4, luminol (Sigma-Aldrich) (0.05 mM), TBHP (Sigma-Aldrich) (0.073 M) and tested compounds at a concentration of 20 μM. This was placed in a light-proof luminometer chamber and the background reading was recorded. All measurements were carried out at 37°C. The gain control was set to give a reading of 10 mV using a built-in standard. The free radical content in mouse brain homogenate was evaluated by the change in the light sum (the area under the kinetic curve of luminescence intensity for the entire luminescence time). All compounds were examined at least in triplicate. The effects of tested compounds were measured as the percentage decrease in the light sum relative to the control (a sample with no compound added).

mouse brain homogenate [5] = assay: TBARS assay, spontaneous lipid peroxidation in mouse brain homogenate; conditions: read-out: Inhibition of Spontaneous Lipid Peroxidation in Mice Brain Homogenate, TBARS Assay, IC50
Description: as §2
The procedure was performed in accordance with the method of Ohkawa et al. with minor modifications. Briefly, mouse brain homogenate (protein concentration 1 mg/mL) in PBS (0.1 M, pH 7.4) was incubated for 30 min at 37°C with tested conjugates, and the reaction was terminated by addition of 0.4 mL of 17% (w/v) trichloroacetic acid (Sigma-Aldrich). Following centrifugation for 20 min at 1300× g, 0.5 mL of 0.8% (w/v) of TBA (Sigma-Aldrich) was added to 1 mL of supernatant, heated for 30 min at 95°C and then cooled to RT. The optical density of the TBARS, which corresponds to the produced MDA, was measured at 532 nm against a blank using an Agilent Cary 60 UV-Vis spectrophotometer (Agilent, Santa Clara, CA, USA). The MDA concentration was calculated using an extinction coefficient of 1.56 × 10^5 M^−1cm^−1. Trolox and BHT were used as reference antioxidants. Compounds were dissolved in DMSO (Sigma-Aldrich) and tested in a concentration range 0.01–100 μM. All compounds were examined at least in triplicate.

T1 sequence (P81908 whole entry): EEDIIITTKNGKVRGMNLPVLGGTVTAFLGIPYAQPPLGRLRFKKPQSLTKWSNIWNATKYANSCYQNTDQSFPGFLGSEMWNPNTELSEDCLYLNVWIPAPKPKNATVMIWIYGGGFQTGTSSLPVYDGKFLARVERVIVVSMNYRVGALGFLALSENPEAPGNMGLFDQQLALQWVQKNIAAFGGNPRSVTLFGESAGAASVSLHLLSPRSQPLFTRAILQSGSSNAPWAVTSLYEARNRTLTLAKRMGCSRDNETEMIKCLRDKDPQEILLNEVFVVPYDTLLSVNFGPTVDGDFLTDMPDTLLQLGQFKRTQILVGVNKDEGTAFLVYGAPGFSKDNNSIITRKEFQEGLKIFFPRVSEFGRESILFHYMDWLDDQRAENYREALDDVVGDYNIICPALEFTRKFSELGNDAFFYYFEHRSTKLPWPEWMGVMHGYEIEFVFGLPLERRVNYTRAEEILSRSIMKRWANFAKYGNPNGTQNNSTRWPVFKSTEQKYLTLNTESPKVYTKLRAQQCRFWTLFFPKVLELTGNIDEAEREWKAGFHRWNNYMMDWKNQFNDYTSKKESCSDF
T2 sequence (P22303 32-617 isoform P22303-2 limits assumed): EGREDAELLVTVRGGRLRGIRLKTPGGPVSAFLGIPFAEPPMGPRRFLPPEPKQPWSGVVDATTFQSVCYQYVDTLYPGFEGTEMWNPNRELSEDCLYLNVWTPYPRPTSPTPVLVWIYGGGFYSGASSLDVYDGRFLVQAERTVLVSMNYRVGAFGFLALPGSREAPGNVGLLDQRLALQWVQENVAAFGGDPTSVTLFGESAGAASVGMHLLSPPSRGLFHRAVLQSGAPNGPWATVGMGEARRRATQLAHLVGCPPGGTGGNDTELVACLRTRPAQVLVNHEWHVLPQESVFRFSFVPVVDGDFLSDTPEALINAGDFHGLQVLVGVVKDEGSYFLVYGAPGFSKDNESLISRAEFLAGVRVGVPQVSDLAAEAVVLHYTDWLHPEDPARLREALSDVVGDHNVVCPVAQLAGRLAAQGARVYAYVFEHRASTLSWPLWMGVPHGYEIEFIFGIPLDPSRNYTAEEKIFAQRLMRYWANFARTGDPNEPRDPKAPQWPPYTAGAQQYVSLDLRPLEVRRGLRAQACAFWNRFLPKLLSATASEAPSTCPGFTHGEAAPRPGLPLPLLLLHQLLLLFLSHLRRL

SMILES: CC(C)(C)c1cc(C=NCCNc2c3c(nc4ccccc24)CCCCC3)cc(C(C)(C)C)c1O [Compound 7c, 2,6-Di-tert-butyl-4-{[2-(7,8,9,10-tetrahydro-6H-cyclohepta[b]quinolin-11-ylamino)-ethylimino]-methyl}-phenol]
- Selectivity for BChE (Equine serum BChE [1]; IC50 AChE / IC50 BChE): 9.6
- IC50 (Equine serum BChE [1]; mean ± SEM, n = 3, n.a. = not active, read-out: Equine Serum BChE, IC50): 419 ± 40 nM
- IC50 (Human erythrocyte AChE): 4030 ± 30 nM
- Porcine Liver CES, (%) inhibition (Porcine liver CES): 30.1 ± 2.5%
- αKi (noncompetitive component), BChE (Equine serum BChE [2]; Lineweaver-Burk plots): 0.437 ± 0.010 µM
- Ki (Equine serum BChE [2]; Lineweaver-Burk plots, read-out: Ki (competitive component), BChE): 164 ± 5 nM
- Mechanism of BChE inhibition (Equine serum BChE [2]; changes in both Km and Vmax): mixed type of reversible inhibition
- Ferric Reducing Antioxidant Power, FRAP Units [3]: 0.52 ± 0.04
- Radical Scavenging Capacity in Luminol Chemiluminescence Assay, Luminescence Inhibition, % (mouse brain homogenate [4]): 95.0 ± 0.4%
- IC50 (mouse brain homogenate [5]): 10400 ± 700 nM
